From the CheMixHub viscosity set

Assay: xn = mol fraction of the nth substance listed

CCCCCCCCO + CCCCCCO
viscosity [mPa·s], 101.8 kPa
Details | x2 = 0.1207 | x2 = 0.3506 | x2 = 0.5615 | x2 = 0.7463 | x2 = 0.9227
298.15 K | 7.227 | 6.442 | 5.793 | 5.234 | 4.736
308.15 K | 5.209 | 4.695 | 4.259 | 3.879 | 3.53
318.15 K | 3.833 | 3.481 | 3.18 | 2.914 | 2.671

CCCCCCCCO + CCOC(C)=O
viscosity [mPa·s]
Details | 298.15 K | 303.15 K | 308.15 K | 313.15 K
101 kPa, x1 = 0.0646 | 0.512 | 0.484 | 0.455 | 0.429
101 kPa, x1 = 0.1344 | 0.629 | 0.589 | 0.55 | 0.513
101 kPa, x1 = 0.2103 | 0.783 | 0.727 | 0.673 | 0.623
101 kPa, x1 = 0.2928 | 0.991 | 0.911 | 0.834 | 0.766
101 kPa, x1 = 0.3832 | 1.279 | 1.164 | 1.054 | 0.958
101 kPa, x1 = 0.4823 | 1.689 | 1.519 | 1.36 | 1.223
101 kPa, x1 = 0.5917 | 2.298 | – | 1.806 | 1.605
101 kPa, x1 = 0.713 | 3.246 | 2.844 | 2.482 | 2.179
101 kPa, x1 = 0.8483 | 4.801 | 4.144 | 3.563 | 3.083
101.33 kPa, x2 = 0.141 | 4.383 | 3.809 | 3.324 | –
101.33 kPa, x2 = 0.2701 | 2.825 | 2.512 | 2.215 | –
101.33 kPa, x2 = 0.3878 | 1.985 | 1.777 | 1.596 | –
101.33 kPa, x2 = 0.4964 | 1.449 | 1.292 | 1.152 | –
101.33 kPa, x2 = 0.5965 | 1.088 | 0.992 | 0.907 | –
101.33 kPa, x2 = 0.6891 | 0.841 | 0.798 | 0.724 | –
101.33 kPa, x2 = 0.7641 | 0.712 | 0.653 | 0.606 | –
101.33 kPa, x2 = 0.8552 | 0.585 | 0.542 | 0.51 | –
101.33 kPa, x2 = 0.9301 | 0.496 | 0.468 | 0.446 | –

CC(C)(C)N + CCCCOC(C)=O
303.15 K, 101 kPa
Details | viscosity [mPa·s]
x1 = 0.1472 | 0.6309
x1 = 0.229 | 0.6186
x1 = 0.3626 | 0.5943
x1 = 0.435 | 0.5852
x1 = 0.5578 | 0.5545
x1 = 0.6566 | 0.5313
x1 = 0.7339 | 0.5091
x1 = 0.8272 | 0.4861

CCCCCCCCO + CCCCCCCCCCCC
298.15 K, 101 kPa
Details | viscosity [mPa·s]
x2 = 0.0554 | 6.58
x2 = 0.0999 | 6
x2 = 0.1554 | 5.3
x2 = 0.1998 | 4.78
x2 = 0.2555 | 4.16
x2 = 0.2998 | 3.71
x2 = 0.3554 | 3.19
x2 = 0.3998 | 2.81
x2 = 0.4554 | 2.39
x2 = 0.4999 | 2.1
x2 = 0.5555 | 1.78
x2 = 0.5998 | 1.57
x2 = 0.6555 | 1.35
x2 = 0.6998 | 1.22
x2 = 0.7554 | 1.1
x2 = 0.7998 | 1.04
x2 = 0.8555 | 1
x2 = 0.8999 | 1
x2 = 0.9555 | 1.04

CC(=O)c1ccc(Cl)cc1 + CC#N
308.15 K, 101 kPa
Details | viscosity [mPa·s]
x1 = 0.0513 | 0.3576
x1 = 0.092 | 0.4065
x1 = 0.1488 | 0.479
x1 = 0.2128 | 0.5704
x1 = 0.2863 | 0.6742
x1 = 0.3792 | 0.8301
x1 = 0.4876 | 1.039
x1 = 0.6196 | 1.31
x1 = 0.7847 | 1.716
x1 = 0.865 | 1.96
x1 = 0.9536 | 2.224

BrC(Br)Br + ClCCCCCl
viscosity [mPa·s], 101 kPa
Details | x1 = 0.0978 | x1 = 0.197 | x1 = 0.2974 | x1 = 0.3963 | x1 = 0.496 | x1 = 0.5975 | x1 = 0.6963 | x1 = 0.7994 | x1 = 0.8972
298.15 K | 1.382 | 1.455 | 1.538 | 1.607 | 1.677 | 1.748 | 1.813 | 1.868 | 1.924
303.15 K | 1.278 | 1.346 | 1.423 | 1.489 | 1.556 | 1.624 | 1.686 | 1.743 | 1.803
308.15 K | 1.184 | 1.247 | 1.32 | 1.381 | 1.446 | 1.507 | 1.573 | 1.625 | 1.687
313.15 K | 1.099 | 1.158 | 1.232 | 1.281 | 1.34 | 1.401 | 1.462 | 1.52 | 1.578

CCCCCCCCO + c1ccccc1
viscosity [mPa·s]
Details | 293.15 K | 298.15 K | 303.15 K | 313.15 K | 323.15 K
100 kPa, x2 = 0.0834 | 7.415 | – | 5.248 | 3.685 | 2.768
100 kPa, x2 = 0.1711 | 6.045 | – | 4.294 | 2.932 | 2.235
100 kPa, x2 = 0.2512 | 5.033 | – | 3.532 | 2.393 | 1.821
100 kPa, x2 = 0.3602 | 3.894 | – | 2.682 | 1.807 | 1.365
100 kPa, x2 = 0.4552 | 3.069 | – | 2.085 | 1.4 | 1.062
100 kPa, x2 = 0.5612 | 2.333 | – | 1.545 | 1.076 | 0.818
100 kPa, x2 = 0.6483 | 1.824 | – | 1.236 | 0.904 | 0.7
100 kPa, x2 = 0.7524 | 1.334 | – | 0.957 | 0.736 | 0.594
100 kPa, x2 = 0.8537 | 0.975 | – | 0.736 | 0.608 | 0.516
100 kPa, x2 = 0.9502 | 0.748 | – | 0.612 | 0.525 | 0.455
101.33 kPa, x1 = 0.2 | – | 0.863 | – | – | 0.57

C=Cc1ccccc1 + C1CCOC1
viscosity [mPa·s], 101.33 kPa
Details | x1 = 0.1011 | x1 = 0.199 | x1 = 0.3001 | x1 = 0.401 | x1 = 0.4963 | x1 = 0.6002 | x1 = 0.6993 | x1 = 0.8017 | x1 = 0.8979
298.15 K | 0.514 | – | 0.595 | 0.632 | 0.664 | 0.695 | 0.721 | 0.742 | 0.747
303.15 K | 0.49 | 0.528 | 0.562 | 0.599 | 0.625 | 0.658 | 0.677 | 0.695 | 0.699
308.15 K | 0.463 | 0.498 | 0.532 | 0.564 | 0.589 | 0.616 | 0.637 | 0.652 | 0.651
